Data published in patent US11795162B2, “Modulators of the estrogen-related receptor” (Saint Louis University, priority 2017, dated 2023).

Target: T1, ERR gamma protein (Homo sapiens, UniProt P62508)
T1 sequence (P62508 1-458): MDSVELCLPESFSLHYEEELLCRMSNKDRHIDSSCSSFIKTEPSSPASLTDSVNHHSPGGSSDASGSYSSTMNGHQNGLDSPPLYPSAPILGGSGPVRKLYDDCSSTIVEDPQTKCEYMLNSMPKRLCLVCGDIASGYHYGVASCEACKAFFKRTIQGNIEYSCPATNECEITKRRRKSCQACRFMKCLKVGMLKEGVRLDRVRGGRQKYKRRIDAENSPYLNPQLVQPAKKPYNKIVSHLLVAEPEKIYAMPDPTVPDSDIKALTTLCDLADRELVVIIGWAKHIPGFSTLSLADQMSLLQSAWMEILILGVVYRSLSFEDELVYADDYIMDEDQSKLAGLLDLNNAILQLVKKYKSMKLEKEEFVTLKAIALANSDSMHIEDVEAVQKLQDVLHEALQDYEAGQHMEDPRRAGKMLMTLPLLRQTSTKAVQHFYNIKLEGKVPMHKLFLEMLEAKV
Assay: Protein thermal shift assay
Assay type: binding
Conditions: compound at 20 μM; ERR gamma protein 0.1 mg/mL, SYPRO-Orange; read-out: T.S. (thermal shift) range
Description: Six replicate reactions were set up and run in Applied Biosystems Quantstudio 7 Real-Time PCR system. Data were collected at a ramp rate of 0.05° C./s from 24° C. through 95° C. and analyzed using Protein Thermal Shift Software 1.3.

Row | SMILES | ΔTm at 20 µM [°C]
1 | O=C(NCc1ccccc1)c1ccc(-c2ccc(Cl)cc2)s1 [Compound 2, N-benzyl-5-(4-chlorophenyl)thiophene-2-carboxamide] | 2 to 4
2 | Clc1ccc(-c2ccc(CNCc3ccccc3)s2)cc1 [Compound 3, N-benzyl-1-(5-(4-chlorophenyl)thiophen-2-yl)methanamine] | 0 to 2
3 | CC(C)c1ccc(-c2ccc(COc3ccccc3)s2)cc1 [Compound 4, 2-(4-isopropylphenyl)-5-(phenoxymethyl)thiophene] | 0 to 2
4 | CC(C)c1ccc(NC(=O)c2cc(-c3ccc(O)cc3)[nH]n2)cc1 [Compound 5, 3-(4-hydroxyphenyl)-N-(4-isopropylphenyl)-1H-pyrazole-5-carboxamide] | 2 to 4
5 | CC(C)c1cccc(-c2ccc(C(=O)Nc3ccc(O)cc3)s2)c1 [Compound 6, N-(4-hydroxyphenyl)-5-(3-isopropylphenyl)thiophene-2-carboxamide] | 0 to 2
6 | O=C(Nc1cccc(F)c1)c1ccc(-c2ccc(O)cc2)s1 [Compound 7, N-(3-fluorophenyl)-5-(4-hydroxyphenyl)thiophene-2-carboxamide] | > 4
7 | O=C(Nc1ccc(O)cc1)c1coc(-c2ccsc2)n1 [Compound 10, N-(4-hydroxyphenyl)-2-(thiophen-3-yl)oxazole-4-carboxamide] | 0 to 2
8 | O=C(Nc1cccc(F)c1)c1ncc(-c2ccc(O)cc2)s1 [Compound 11, N-(3-fluorophenyl)-5-(4-hydroxyphenyl)thiazole-2-carboxamide] | > 4
9 | O=C(Nc1ccccc1F)c1ccc(-c2ccc(C(=O)C(F)(F)F)cc2)s1 [Compound 12, N-(2-fluorophenyl)-5-(4-(2,2,2-trifluoroacetyl)phenyl)thiophene-2-carboxamide] | 0 to 2
10 | CC(C)c1ccc(-c2ccc(C(=O)Nc3ccc(O)cc3)s2)cc1 [Compound 13] | 0 to 2
11 | O=C(Nc1ccc(F)cc1)c1ccc(-c2ccc(B(O)O)cc2)s1 [Compound 17] | 2 to 4
12 | COc1ccc(NC(=O)c2ccc(-c3ccc(N)cc3)s2)cc1 [Compound 18] | 0 to 2
13 | Cc1cccc(NC(=O)c2ccc(-c3ccc(O)cc3)s2)c1 [Compound 19] | 0 to 2
14 | O=C(Nc1cccc(F)c1)c1ncc(-c2cccc(O)c2)s1 [Compound 21] | > 4
15 | N#Cc1ccc(NC(=O)c2ccc(-c3cccc(O)c3)s2)cc1 [Compound 22] | 0 to 2
16 | COc1ccc(NC(=O)c2ccc(-c3ccc(O)cc3)s2)cc1 [Compound 29] | 0 to 2
17 | O=C(Nc1ccc2ccccc2c1)c1ccc(-c2ccc(O)cc2)s1 [Compound 31] | 0 to 2
18 | Nc1ccc(-c2ccc(C(=O)NCc3cccc(F)c3)o2)cc1 [Compound 36] | 0 to 2
19 | O=C(Nc1ccc2ncsc2c1)c1ccc(-c2ccc(O)cc2)o1 [Compound 41] | 2 to 4
20 | O=C(Nc1ccc2ncsc2c1)c1ccc(-c2cccc(O)c2)o1 [Compound 42] | 0 to 2
21 | O=C(Nc1cccc(B(O)O)c1)c1ccc(-c2ccccc2F)s1 [Compound 44] | 2 to 4
22 | O=C(O)c1ccc(-c2ccc(C(=O)Nc3ccc(F)cc3)s2)cc1 [Compound 48] | 0 to 2
23 | O=C(NC1CCCCC1)c1ccc(-c2ccc(O)cc2)s1 [Compound 49] | 2 to 4
24 | CCOc1ccc(NC(=O)c2ccc(-c3cccc(N)c3)s2)cc1 [Compound 51] | > 4
25 | CCOc1ccc(NC(=O)c2ccc(-c3cccc(O)c3)s2)cc1 [Compound 52] | 2 to 4
26 | O=C(Nc1ccc2ccccc2c1)c1ccc(-c2cccc(O)c2)s1 [Compound 53] | > 4

Row | SMILES | ΔTm at 20 µM [°C]
27 | Nc1cccc(-c2ccc(C(=O)Nc3ccc4ccccc4c3)s2)c1 [Compound 54] | 2 to 4
28 | O=C(Nc1cccc(B(O)O)c1)c1ccc(-c2ccsc2)s1 [Compound 57] | > 4
29 | O=C(Nc1cccc(F)c1)c1ccc(-c2cnc(O)nc2)s1 [Compound 58] | 0 to 2
30 | O=C(Nc1ccccc1F)c1ccc(-c2cccc(B(O)O)c2)s1 [Compound 59] | 0 to 2
31 | O=C(Nc1cccc(F)c1)c1ccc(-c2ccc(O)c(C(F)(F)F)c2)s1 [Compound 61] | > 4
32 | O=C(Nc1ccccc1F)c1ccc(-c2cccc(O)c2)s1 [Compound 63] | 0 to 2
33 | O=C(Nc1cccc(F)c1)c1ccc(-c2ccc3[nH]ccc3c2)s1 [Compound 66] | 2 to 4
34 | O=C(Nc1ccc(C(F)(F)F)cc1)c1ccc(-c2ccc(O)cc2)s1 [Compound 68] | 0 to 2
35 | O=C(Nc1ccc(C(F)(F)F)cc1)c1ccc(-c2ccncc2)s1 [Compound 69] | 0 to 2
36 | O=C(Nc1cccc(C(F)(F)F)c1)c1ccc(-c2ccncc2)s1 [Compound 70] | 0 to 2
37 | O=C(Nc1cccc(C(F)(F)F)c1)c1ccc(-c2ccc(O)cc2)s1 [Compound 71] | 0 to 2
38 | COc1ccc(NC(=O)c2ccc(-c3ccsc3)s2)cc1 [Compound 73] | 0 to 2
39 | COc1cc(NC(=O)c2ccc(-c3ccc(Cl)cc3)s2)cc(OC)c1 [Compound 75] | 0 to 2
40 | CC(C)Cc1ccc(-c2ccc(C(=O)Nc3ccc(Cl)cc3)s2)cc1 [Compound 76] | 0 to 2
41 | CC(C)Cc1ccc(-c2ccc(C(=O)Nc3cccnc3)s2)cc1 [Compound 77] | 0 to 2
42 | CC(C)Cc1ccc(-c2ccc(C(=O)Nc3ccncc3)s2)cc1 [Compound 78] | 2 to 4
43 | CC(C)Cc1ccc(-c2ccc(C(=O)Nc3ccc(O)cc3)s2)cc1 [Compound 79] | 2 to 4
44 | Cc1ccc(-c2ccc(C(=O)Nc3ccc(Cl)cc3)s2)cc1C [Compound 80] | 0 to 2
45 | Cc1ccc(-c2ccc(C(=O)Nc3cccnc3)s2)cc1C [Compound 81] | 0 to 2
46 | Cc1ccc(-c2ccc(C(=O)Nc3ccncc3)s2)cc1C [Compound 82] | 0 to 2
47 | Cc1ccc(-c2ccc(C(=O)Nc3ccc(O)cc3)s2)cc1C [Compound 83] | 0 to 2
48 | O=C(Nc1ccc(Cl)cc1)c1ccc(-c2ccccc2F)s1 [Compound 84] | 2 to 4
49 | O=C(Nc1cccnc1)c1ccc(-c2ccccc2F)s1 [Compound 85] | 0 to 2
50 | O=C(Nc1ccncc1)c1ccc(-c2ccccc2F)s1 [Compound 86] | 0 to 2
51 | O=C(Nc1cccnc1)c1ccc(-c2cccc(F)c2)s1 [Compound 89] | 0 to 2
52 | O=C(Nc1ccncc1)c1ccc(-c2cccc(F)c2)s1 [Compound 90] | 2 to 4

Row | SMILES | ΔTm at 20 µM [°C]
53 | O=C(Nc1ccc(Cl)cc1)c1ccc(-c2ccc(F)cc2)s1 [Compound 92] | 0 to 2
54 | O=C(Nc1cccnc1)c1ccc(-c2ccc(F)cc2)s1 [Compound 93] | 0 to 2
55 | O=C(Nc1ccncc1)c1ccc(-c2ccc(F)cc2)s1 [Compound 94] | 0 to 2
56 | N#Cc1cccc(-c2ccc(C(=O)Nc3ccc(Cl)cc3)s2)c1 [Compound 96] | 0 to 2
57 | N#Cc1cccc(-c2ccc(C(=O)Nc3cccnc3)s2)c1 [Compound 97] | 0 to 2
58 | N#Cc1cccc(-c2ccc(C(=O)Nc3ccc(O)cc3)s2)c1 [Compound 98] | 2 to 4
59 | N#Cc1ccc(-c2ccc(C(=O)Nc3ccc(Cl)cc3)s2)cc1 [Compound 99] | 0 to 2
60 | N#Cc1ccc(-c2ccc(C(=O)Nc3cccnc3)s2)cc1 [Compound 100] | 0 to 2
61 | N#Cc1ccc(-c2ccc(C(=O)Nc3ccncc3)s2)cc1 [Compound 101] | 0 to 2
62 | N#Cc1ccc(-c2ccc(C(=O)Nc3ccc(O)cc3)s2)cc1 [Compound 102] | 2 to 4
63 | O=C(Nc1cccnc1)c1ccc(-c2ccsc2)s1 [Compound 103] | 0 to 2
64 | O=C(Nc1cccnc1)c1ccc(-c2ccc3ccccc3c2)s1 [Compound 106] | 2 to 4
65 | O=C(Nc1ccc(Cl)cc1)c1ccc(-c2cccc(C(F)(F)F)c2)s1 [Compound 107] | 0 to 2
66 | O=C(Nc1cccnc1)c1ccc(-c2cccc(C(F)(F)F)c2)s1 [Compound 108] | 0 to 2
67 | O=C(Nc1ccncc1)c1ccc(-c2cccc(C(F)(F)F)c2)s1 [Compound 109] | 2 to 4
68 | O=C(Nc1ccc(O)cc1)c1ccc(-c2cccc(C(F)(F)F)c2)s1 [Compound 110] | 2 to 4
69 | O=C(Nc1ccc(Cl)cc1)c1ccc(-c2ccc(C(F)(F)F)cc2)s1 [Compound 111] | 0 to 2
70 | O=C(Nc1cccnc1)c1ccc(-c2ccc(C(F)(F)F)cc2)s1 [Compound 112] | 0 to 2
71 | O=C(Nc1ccncc1)c1ccc(-c2ccc(C(F)(F)F)cc2)s1 [Compound 113] | 0 to 2
72 | CC(C)Oc1ccc(-c2ccc(C(=O)Nc3cccnc3)s2)cc1 [Compound 115] | 0 to 2
73 | CC(C)Oc1ccc(-c2ccc(C(=O)Nc3ccncc3)s2)cc1 [Compound 116] | 0 to 2
74 | CC(C)c1cccc(-c2ccc(C(=O)Nc3ccc(Cl)cc3)s2)c1 [Compound 117] | 0 to 2
75 | CC(C)c1cccc(-c2ccc(C(=O)Nc3cccnc3)s2)c1 [Compound 118] | 0 to 2
76 | CC(C)c1cccc(-c2ccc(C(=O)Nc3ccncc3)s2)c1 [Compound 119] | 0 to 2
77 | O=C(Nc1ccncc1)c1ccc(-c2ccc3ccccc3c2)s1 [Compound 120] | 2 to 4
78 | O=C(Nc1ccc(O)cc1)c1ccc(-c2ccc3ccccc3c2)s1 [Compound 121] | 0 to 2
